Measurements from US11001802B2, “Surface of a vessel with polystyrene, nitrogen, oxygen and a static sessile contact angle for attachment and cultivation of cells” (Nunc A/S, priority 2008, dated 2021).

Assays:
human ES cell line H9 = experiment: Attachment and colony formation of H9 human ES cells on surface modified plates with Rho kinase inhibitors (crystal violet, image analysis); type: cell-based; conditions: H9 on surface modified plates 2, 3, 4 and 13; crystal violet; Y-27632 at 10 μM
Protocol: Human ES cells of the line H9, at passage 40 were maintained in MEF conditioned media on Nunclon Delta™ plates treated with a 1:30 dilution of growth factor reduced Matrigel™, prior to study. Cells were dissociated from the surface for passage by 1 mg/ml collagenase dissociation or by manual scraping.
These cells were then seeded onto surface modified plates 2, 3, 4 and 13 (12-well format) in the presence of increasing amounts one of the following Rho Kinase inhibitors: Y-27632 (from Sigma, St. Louis, Mo. or EMD, San Diego, Calif.), Fasudil (Sigma), or Hydroxyfasudil (Sigma), and maintained for 3 days, each day replacing the media and compound. At the end of day three, media was removed and the plates were stained with Crystal Violet (0.5% in water) to visualize colonies.
It was attempted to determine the optimal dose of Y-27632 to promote cell binding, by treating cells with a range of plating concentrations of Y-27632 for the first day of culture. After the first day in culture cells were treated on subsequent days with a 10 μM concentration of Y-27632. It was observed that the maximal concentration to stimulate attachment and growth of ES cells was 10 μM (FIG. 12) and that this occurred on surface modified plates 2, 3, 4, 13 and CellBIND™ (Corning, Corning, N.Y.).
The effect of treating the cells continuously with a single dose of Y-27632 on attachment and growth was also tested. The cells were dosed with 0, 1, 4, or 10 μM Y-27632 for 4 days. Some binding was observed on surface modified plates without treatment (0 μM), however the optimal concentration to stimulate attachment and growth of ES cells was 10 μM Y-27632 (Table 4) on surface modified plates 2, 3, 4, 13.

HEK293 cells = experiment: HEK293 attachment and growth, culture confluence by IncuCyte Plus (Examples 20, 21); type: cell-based, human
Protocol: HEK293 cells were maintained in EMEM (Lonza) containing 10% FBS (Lonza). Cells were passaged at 70-80% confluence using Trypsin/EDTA for dissociation, and seeded at c 2.0×10^4 cells/cm^2 in 75-cm^2 flasks with Nunclon Delta™ surface (Thermo Fisher Scientific, Roskilde, Denmark).
EMEM (500 μl) supplemented with 10% FBS containing 1.0, 5.0, 10, 15 or 20 μM Y-27632 (Sigma Chemical Co.), or 0.4, 1.2, 1.6, 2.4 or 2.8 μM H-1152 (Calbiochem, EMD Chemicals Inc., Darmstadt, Germany) was dispensed in Multidish 24-well plates with either Surface 4 or a non-treated (but gamma irradiated; 25 kGy) polystyrene surface. Another 500 μl of EMEM supplemented with 10% FBS and containing HEK293 cells were added to the wells (2.0×10^4 cells/cm^2). The cultures were placed in an IncuCyte™ Plus (Essen Instruments, Michigan, USA) and incubated at 37° C. in a humidified atmosphere of 5% CO2 in air. The IncuCyte™ Plus is an automated imaging platform, configured to fit inside a CO2 incubator, and designed to provide kinetic, non-invasive live cell imaging by acquiring phase contrast images of the cells at user-defined times and locations within the cultures. The primary metric of the instrument is culture confluence, that is, the fraction of the surface that is covered by cells. The HEK293 cells were incubated for 72 hours without manipulations, and images were collected every two hours at 9 positions in triplicate cultures. Culture confluence was determined using the IncuCyte™ Plus software (v. 3.4.1.25966).
EMEM (1.0 ml) supplemented with 10% FBS containing 0.4, 0.8, 1.2, 1.6, 2.0, 2.4 or 2.8 μM H-1152 was dispensed in Multidish 12-well plates with Surface 4. Another 1.0 ml of EMEM supplemented with […] and containing HEK293 cells were added to the wells (4.0×10^4 cells/cm^2). The cultures were placed in an IncuCyte™ Plus, and incubated at 37° C. in a humidified atmosphere of 5% CO2 in air for 42 hours (images were collected every 6 hours). One ml of culture medium was then removed by pipetting, and 1.0 ml EMEM supplemented with 10% FBS containing 0.2, 0.4, 0.6, 0.8, 1.0, 1.2 and 1.4 μM H-1152 was added. The cultures were placed in the IncuCyte™ Plus again, and images were collected every hour over the following 25 hours. Images were collected at 9 positions in triplicate cultures, and culture confluence was determined using the IncuCyte™ Plus software. Images from the IncuCyte™ Plus collected at specific positions in HEK293 cell cultures grown in the absence or presence of H-1152 (0.6 μM) was retrieved and presented as phase-contrast micrographs for the comparison of HEK293 culture morphology at the following time points: start of incubation (0 hours), just before medium change (42 hours), 1 hour after the medium change (43 hours), and, finally, after 52 hours of incubation.

| Compound | attachment of ES cell colonies by day three (human ES cell line H9) | effect of change of 50% of the medium after 42 hours on culture confluence (HEK293 cells; Surface 4, 0.2 μM or 0.4 μM H-1152) | effect of change of 50% of the medium after 42 hours on culture confluence (HEK293 cells; Surface 4, 0.6 μM, 0.8 μM or 1.4 μM H-1152) | attachment and growth of HEK293 cells (HEK293 cells; Surface 4, increasing concentration) | growth and attachment of HEK293 cells (HEK293 cells; non-treated polystyrene surface, 10 μM Y-27632, 0.6-1.2 μM H-1152) |
| --- | --- | --- | --- | --- | --- |
| O=S(=O)(c1cccc2cnccc12)N1CCCNCC1 [Fasudil] | some colonies could be observed to attach and grow | – | – | – | – |
| O=c1[nH]ccc2c(S(=O)(=O)N3CCCNCC3)cccc12 [Hydroxyfasudil] | some colonies could be observed to attach and grow | – | – | – | – |
| Cc1cncc2cccc(S(=O)(=O)N3CCCNC[C@@H]3C)c12 [Surface H-1152, H-1152] | – | significant reduction in culture confluence | minimal | enhances attachment and growth | slightly enhanced |
